In ChEMBL document CHEMBL5678818, “Discovery of potent SOS1 inhibitors that block RAS activation via disruption of the RAS-SOS1 interaction” (Proc Natl Acad Sci U S A, 2019):

Assays:
[1] = molecular target: G protein-coupled receptor kinase 3 (Homo sapiens) (UniProt P35626); assay: Inhibition of GRK3 (unknown origin) assessed as residual activity at 1000 nM by KINOMEscan analysis relative to control
[2] = test system: Tyrosine-protein kinase ABL1 (Homo sapiens), P00519 [F317L]; assay: Inhibition of phosphorylated ABL1 F317L mutant (unknown origin) assessed as residual activity at 100 nM by KINOMEscan analysis relative to control
[3] = molecular target: Calcium/calmodulin-dependent protein kinase type II subunit delta (Homo sapiens) (UniProt Q13557); assay: Inhibition of CAMK2D (unknown origin) assessed as residual activity at 100 nM by KINOMEscan analysis relative to control
Chain of Calcium/calmodulin-dependent protein kinase type II subunit delta (Homo sapiens) (Q13557 whole entry): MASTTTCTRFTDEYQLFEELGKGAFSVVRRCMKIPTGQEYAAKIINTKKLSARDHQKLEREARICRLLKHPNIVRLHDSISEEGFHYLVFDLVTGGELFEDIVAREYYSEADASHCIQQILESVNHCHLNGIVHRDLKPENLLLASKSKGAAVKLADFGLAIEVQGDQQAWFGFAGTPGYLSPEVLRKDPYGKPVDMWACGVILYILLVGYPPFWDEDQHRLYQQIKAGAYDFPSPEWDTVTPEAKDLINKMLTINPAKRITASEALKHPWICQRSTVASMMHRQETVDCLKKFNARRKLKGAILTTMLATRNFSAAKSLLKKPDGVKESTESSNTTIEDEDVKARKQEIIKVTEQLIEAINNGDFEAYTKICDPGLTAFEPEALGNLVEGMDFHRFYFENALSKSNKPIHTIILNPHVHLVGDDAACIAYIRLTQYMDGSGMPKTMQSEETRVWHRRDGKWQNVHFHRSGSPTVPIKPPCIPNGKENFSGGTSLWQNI

[4] = molecular target: Dual specificity protein kinase CLK4 (Homo sapiens) (UniProt Q9HAZ1); assay: Inhibition of CLK4 (unknown origin) assessed as residual activity at 100 nM by KINOMEscan analysis relative to control
Chain of Dual specificity protein kinase CLK4 (Homo sapiens) (Q9HAZ1 whole entry, looked up): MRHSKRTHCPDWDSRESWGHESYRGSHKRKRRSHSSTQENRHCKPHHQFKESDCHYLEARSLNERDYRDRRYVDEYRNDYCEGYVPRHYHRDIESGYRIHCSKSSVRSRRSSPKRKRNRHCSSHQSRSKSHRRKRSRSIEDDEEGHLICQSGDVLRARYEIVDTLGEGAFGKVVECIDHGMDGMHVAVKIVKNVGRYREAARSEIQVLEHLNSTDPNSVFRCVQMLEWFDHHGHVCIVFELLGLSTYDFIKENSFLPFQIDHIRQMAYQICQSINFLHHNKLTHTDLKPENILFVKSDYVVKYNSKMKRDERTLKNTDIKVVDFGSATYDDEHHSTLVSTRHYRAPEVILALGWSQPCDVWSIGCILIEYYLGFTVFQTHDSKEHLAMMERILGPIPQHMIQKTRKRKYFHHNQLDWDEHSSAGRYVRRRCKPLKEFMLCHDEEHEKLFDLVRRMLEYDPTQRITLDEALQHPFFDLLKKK

[5] = test system: Epidermal growth factor receptor (Homo sapiens), P00533 [G719S]; assay: Inhibition of EGFR G719S mutant (unknown origin) assessed as residual activity at 100 nM by KINOMEscan analysis relative to control
[6] = test system: Epidermal growth factor receptor (Homo sapiens), P00533 [T790M]; assay: Inhibition of EGFR T790M mutant (unknown origin) assessed as residual activity at 100 nM by KINOMEscan analysis relative to control
[7] = test system: Receptor-type tyrosine-protein kinase FLT3 (Homo sapiens), P36888 [K663Q]; assay: Inhibition of FLT3 K663Q mutant (unknown origin) assessed as residual activity at 100 nM by KINOMEscan analysis relative to control
[8] = molecular target: Tyrosine-protein kinase Fyn (Homo sapiens) (UniProt P06241); assay: Inhibition of FYN (unknown origin) assessed as residual activity at 100 nM by KINOMEscan analysis relative to control
Chain of Tyrosine-protein kinase Fyn (Homo sapiens) (P06241 2-537 limits assumed): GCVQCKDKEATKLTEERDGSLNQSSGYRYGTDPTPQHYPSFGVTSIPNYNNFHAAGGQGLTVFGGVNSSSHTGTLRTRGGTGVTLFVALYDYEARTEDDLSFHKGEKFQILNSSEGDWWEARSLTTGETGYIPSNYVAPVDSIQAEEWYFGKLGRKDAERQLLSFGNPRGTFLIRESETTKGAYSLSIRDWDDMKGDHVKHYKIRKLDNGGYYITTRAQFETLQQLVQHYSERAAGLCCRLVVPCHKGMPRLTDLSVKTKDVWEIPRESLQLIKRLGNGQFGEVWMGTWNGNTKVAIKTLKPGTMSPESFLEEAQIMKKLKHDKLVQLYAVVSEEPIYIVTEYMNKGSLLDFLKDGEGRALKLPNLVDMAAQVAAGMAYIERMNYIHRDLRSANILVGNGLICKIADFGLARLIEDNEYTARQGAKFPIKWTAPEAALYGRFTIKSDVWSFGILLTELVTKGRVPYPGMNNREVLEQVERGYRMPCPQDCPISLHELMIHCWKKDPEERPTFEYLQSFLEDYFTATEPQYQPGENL

[9] = molecular target: Homeodomain-interacting protein kinase 1 (Homo sapiens) (UniProt Q86Z02); assay: Inhibition of HIPK1 (unknown origin) assessed as residual activity at 100 nM by KINOMEscan analysis relative to control
[10] = molecular target: T1, Inhibitor of nuclear factor kappa-B kinase subunit epsilon (Homo sapiens) (UniProt Q14164); assay: Inhibition of IKK-epsilon (unknown origin) assessed as residual activity at 100 nM by KINOMEscan analysis relative to control
T1 sequence (whole entry): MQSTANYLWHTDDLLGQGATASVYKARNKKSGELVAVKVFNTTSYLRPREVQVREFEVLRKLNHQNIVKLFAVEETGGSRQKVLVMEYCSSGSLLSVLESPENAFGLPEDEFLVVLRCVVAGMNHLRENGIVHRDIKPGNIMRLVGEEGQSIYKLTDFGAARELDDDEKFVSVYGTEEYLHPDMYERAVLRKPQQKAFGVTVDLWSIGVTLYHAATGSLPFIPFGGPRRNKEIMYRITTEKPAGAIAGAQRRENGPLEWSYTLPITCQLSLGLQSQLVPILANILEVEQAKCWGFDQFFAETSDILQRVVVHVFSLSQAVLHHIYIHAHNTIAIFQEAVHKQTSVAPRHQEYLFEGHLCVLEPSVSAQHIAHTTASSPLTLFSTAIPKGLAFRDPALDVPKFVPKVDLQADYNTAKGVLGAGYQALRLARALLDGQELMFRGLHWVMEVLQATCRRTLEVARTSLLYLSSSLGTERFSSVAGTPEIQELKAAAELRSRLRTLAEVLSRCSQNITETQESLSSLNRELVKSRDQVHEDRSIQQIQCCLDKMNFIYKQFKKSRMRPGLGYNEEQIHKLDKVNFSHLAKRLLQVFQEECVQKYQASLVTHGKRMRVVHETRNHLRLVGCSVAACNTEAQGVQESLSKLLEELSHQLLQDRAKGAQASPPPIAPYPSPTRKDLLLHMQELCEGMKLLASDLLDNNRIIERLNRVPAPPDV

[11] = test system: Mast/stem cell growth factor receptor Kit (Homo sapiens), P10721 [V559D,T670I]; assay: Inhibition of KIT V559D/T670I mutant (unknown origin) assessed as residual activity at 100 nM by KINOMEscan analysis relative to control
Chain of Mast/stem cell growth factor receptor Kit (Homo sapiens), P10721 [V559D,T670I] (P10721 whole entry V559D/T670I, the tested form may be a part): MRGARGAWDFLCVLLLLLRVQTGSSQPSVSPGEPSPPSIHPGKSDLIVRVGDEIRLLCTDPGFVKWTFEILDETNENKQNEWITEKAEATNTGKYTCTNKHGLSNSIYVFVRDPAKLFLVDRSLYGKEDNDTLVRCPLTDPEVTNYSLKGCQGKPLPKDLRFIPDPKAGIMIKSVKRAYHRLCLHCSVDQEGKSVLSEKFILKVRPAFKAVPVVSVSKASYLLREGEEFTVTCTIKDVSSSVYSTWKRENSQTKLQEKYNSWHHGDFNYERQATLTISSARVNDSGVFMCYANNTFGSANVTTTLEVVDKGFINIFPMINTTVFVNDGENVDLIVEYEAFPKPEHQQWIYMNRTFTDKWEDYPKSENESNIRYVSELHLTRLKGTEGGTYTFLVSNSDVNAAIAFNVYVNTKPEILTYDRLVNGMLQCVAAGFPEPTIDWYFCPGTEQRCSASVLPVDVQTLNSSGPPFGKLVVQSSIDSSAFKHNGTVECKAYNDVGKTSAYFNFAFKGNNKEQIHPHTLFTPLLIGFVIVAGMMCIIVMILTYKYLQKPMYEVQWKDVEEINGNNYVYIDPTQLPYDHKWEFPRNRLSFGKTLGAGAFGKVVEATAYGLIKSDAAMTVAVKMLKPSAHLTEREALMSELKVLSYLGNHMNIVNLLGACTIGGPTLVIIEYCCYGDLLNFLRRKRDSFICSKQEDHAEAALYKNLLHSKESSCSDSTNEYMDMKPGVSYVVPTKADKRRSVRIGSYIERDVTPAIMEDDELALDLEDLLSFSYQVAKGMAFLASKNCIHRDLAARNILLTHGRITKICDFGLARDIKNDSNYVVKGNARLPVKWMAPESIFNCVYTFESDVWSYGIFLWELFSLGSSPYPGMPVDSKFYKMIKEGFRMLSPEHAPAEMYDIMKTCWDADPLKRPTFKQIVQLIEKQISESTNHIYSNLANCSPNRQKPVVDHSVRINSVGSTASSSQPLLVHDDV

[12] = molecular target: LIM domain kinase 2 (Homo sapiens) (UniProt P53671); assay: Inhibition of LIMK2 (unknown origin) assessed as residual activity at 100 nM by KINOMEscan analysis relative to control
Chain of LIM domain kinase 2 (Homo sapiens) (P53671 whole entry, looked up, the tested form may be a part): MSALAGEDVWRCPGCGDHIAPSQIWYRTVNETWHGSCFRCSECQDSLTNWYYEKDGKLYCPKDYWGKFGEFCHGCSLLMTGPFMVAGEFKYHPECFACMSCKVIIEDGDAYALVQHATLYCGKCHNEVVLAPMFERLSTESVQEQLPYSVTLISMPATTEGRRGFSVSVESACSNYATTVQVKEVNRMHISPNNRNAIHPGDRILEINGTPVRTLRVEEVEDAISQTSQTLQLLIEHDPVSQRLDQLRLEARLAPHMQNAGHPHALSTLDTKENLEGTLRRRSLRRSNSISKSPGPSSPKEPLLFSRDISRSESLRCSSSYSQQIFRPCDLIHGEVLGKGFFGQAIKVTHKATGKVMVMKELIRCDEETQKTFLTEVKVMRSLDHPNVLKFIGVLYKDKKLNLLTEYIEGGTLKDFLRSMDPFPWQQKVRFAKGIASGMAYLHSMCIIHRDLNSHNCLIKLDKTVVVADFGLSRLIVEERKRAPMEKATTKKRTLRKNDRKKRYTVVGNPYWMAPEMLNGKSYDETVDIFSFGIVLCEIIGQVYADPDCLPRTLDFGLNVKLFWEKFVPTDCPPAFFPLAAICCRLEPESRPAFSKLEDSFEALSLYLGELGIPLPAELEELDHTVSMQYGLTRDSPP

[13] = molecular target: T2, Serine/threonine-protein kinase PLK4 (Homo sapiens) (UniProt O00444); assay: Inhibition of PLK4 (unknown origin) assessed as residual activity at 100 nM by KINOMEscan analysis relative to control
T2 sequence (whole entry): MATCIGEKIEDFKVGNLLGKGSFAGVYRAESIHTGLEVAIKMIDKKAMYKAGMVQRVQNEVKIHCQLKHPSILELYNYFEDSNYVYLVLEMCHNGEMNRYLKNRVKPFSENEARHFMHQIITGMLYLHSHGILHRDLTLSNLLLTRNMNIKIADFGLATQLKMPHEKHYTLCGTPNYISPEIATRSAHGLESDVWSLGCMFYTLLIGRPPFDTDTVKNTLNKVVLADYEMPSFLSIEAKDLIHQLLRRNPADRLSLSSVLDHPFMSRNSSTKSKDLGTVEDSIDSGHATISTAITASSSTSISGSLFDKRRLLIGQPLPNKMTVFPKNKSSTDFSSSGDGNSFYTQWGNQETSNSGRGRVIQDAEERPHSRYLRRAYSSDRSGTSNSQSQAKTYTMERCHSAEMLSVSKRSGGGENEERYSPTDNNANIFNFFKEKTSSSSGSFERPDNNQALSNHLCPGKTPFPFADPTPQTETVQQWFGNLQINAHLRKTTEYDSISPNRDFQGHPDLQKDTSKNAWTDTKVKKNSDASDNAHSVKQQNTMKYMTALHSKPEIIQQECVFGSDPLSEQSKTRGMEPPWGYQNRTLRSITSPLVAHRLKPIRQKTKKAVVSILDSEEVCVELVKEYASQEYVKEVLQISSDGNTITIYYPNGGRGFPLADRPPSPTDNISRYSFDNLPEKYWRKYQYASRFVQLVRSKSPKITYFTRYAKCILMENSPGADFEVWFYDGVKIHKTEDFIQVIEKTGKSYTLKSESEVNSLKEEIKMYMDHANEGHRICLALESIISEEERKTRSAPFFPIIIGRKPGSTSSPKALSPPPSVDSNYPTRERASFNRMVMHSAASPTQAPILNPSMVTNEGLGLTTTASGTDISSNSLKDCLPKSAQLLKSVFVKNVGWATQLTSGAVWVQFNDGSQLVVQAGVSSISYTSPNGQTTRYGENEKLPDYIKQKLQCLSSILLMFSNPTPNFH

[14] = molecular target: Serine/threonine-protein kinase SBK1 (Homo sapiens) (UniProt Q52WX2); assay: Inhibition of SBK1 (unknown origin) assessed as residual activity at 100 nM by KINOMEscan analysis relative to control
Chain of Serine/threonine-protein kinase SBK1 (Homo sapiens) (Q52WX2 whole entry): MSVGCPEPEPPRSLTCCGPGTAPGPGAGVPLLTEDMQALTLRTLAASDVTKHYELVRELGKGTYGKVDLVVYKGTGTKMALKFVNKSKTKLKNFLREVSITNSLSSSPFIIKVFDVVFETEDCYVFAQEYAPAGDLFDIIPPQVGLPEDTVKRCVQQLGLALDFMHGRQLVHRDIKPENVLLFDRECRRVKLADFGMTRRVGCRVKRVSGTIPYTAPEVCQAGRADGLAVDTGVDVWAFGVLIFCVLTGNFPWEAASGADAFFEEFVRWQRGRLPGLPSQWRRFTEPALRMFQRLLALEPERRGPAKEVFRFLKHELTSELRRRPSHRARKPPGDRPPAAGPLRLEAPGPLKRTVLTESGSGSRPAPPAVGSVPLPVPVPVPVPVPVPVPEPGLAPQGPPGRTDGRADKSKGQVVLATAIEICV

[15] = molecular target: Tyrosine-protein kinase Srms (Homo sapiens) (UniProt Q9H3Y6); assay: Inhibition of SRMS (unknown origin) assessed as residual activity at 100 nM by KINOMEscan analysis relative to control
Chain of Tyrosine-protein kinase Srms (Homo sapiens) (Q9H3Y6 whole entry): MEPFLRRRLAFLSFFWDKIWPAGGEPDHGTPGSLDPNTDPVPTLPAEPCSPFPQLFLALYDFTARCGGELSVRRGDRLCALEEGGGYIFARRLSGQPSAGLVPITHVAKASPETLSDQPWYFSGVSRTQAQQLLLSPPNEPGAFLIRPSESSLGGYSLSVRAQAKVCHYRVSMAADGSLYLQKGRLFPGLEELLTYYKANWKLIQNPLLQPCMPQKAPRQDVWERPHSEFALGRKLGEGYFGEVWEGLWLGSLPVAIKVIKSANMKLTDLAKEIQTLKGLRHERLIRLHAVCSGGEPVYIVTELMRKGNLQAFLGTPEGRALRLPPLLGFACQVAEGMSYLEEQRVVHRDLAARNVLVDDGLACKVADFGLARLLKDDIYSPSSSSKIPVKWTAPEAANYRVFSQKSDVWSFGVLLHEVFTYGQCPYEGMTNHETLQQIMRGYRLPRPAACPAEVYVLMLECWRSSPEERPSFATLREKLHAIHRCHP

Chain of G protein-coupled receptor kinase 3 (Homo sapiens) (P35626 whole entry): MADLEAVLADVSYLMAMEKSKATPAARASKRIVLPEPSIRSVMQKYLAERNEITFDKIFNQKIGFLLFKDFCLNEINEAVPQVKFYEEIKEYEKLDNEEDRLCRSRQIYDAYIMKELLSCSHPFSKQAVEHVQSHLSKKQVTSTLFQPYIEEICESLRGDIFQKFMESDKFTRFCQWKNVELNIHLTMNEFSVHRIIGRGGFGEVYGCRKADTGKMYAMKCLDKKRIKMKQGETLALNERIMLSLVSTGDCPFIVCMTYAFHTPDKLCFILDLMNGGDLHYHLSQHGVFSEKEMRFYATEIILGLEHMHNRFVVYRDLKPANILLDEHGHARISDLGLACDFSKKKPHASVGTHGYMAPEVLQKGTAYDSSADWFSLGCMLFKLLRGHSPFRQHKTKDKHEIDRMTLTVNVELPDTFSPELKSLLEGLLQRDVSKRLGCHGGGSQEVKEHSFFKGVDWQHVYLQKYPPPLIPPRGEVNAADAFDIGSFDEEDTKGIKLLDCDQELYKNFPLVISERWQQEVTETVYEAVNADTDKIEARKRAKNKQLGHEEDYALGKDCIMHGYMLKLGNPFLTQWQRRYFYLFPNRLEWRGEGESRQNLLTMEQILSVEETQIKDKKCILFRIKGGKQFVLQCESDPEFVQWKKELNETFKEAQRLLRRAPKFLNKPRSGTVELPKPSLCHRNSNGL

Row | SMILES | Activity [1] [%] | Activity [2] [%] | Activity [3] [%] | Activity [4] [%] | Activity [5] [%] | Activity [6] [%] | Activity [7] [%] | Activity [8] [%] | Activity [9] [%] | Activity [10] [%] | Activity [11] [%] | Activity [12] [%] | Activity [13] [%] | Activity [14] [%] | Activity [15] [%]
1 | COc1cc2nc(C)nc(N[C@H](C)c3cccc(-c4cn[nH]c4)c3)c2cc1OC | 76 | – | – | – | – | – | – | – | – | – | – | – | – | – | –
2 | COc1cc2ncnc(N[C@H](C)c3cccc4ccccc34)c2cc1OC | – | 86 | 70 | 87 | 96 | 96 | 90 | 85 | 75 | 100 | 92 | 28 | 87 | 81 | 79
